Consider two compounds from patent US20210128674A1, “LHRH-CONJUGATED PRODIGIOSIN AND USES THEREOF” (Worcester Polytechnic Institute, priority 2019, published 2021).

For data set [1], the system named is breast cancer cells with knocked down LHRH receptors (MDA-MB-231). The data set can be described thus: alamar blue reduction after siRNA knock down of LHRH receptors. It counts as cell-based, human. The conditions noted are these: 5 μM; 24, 48 and 72 hours; LHRH receptor knock down. (Alamar Blue is a resazurin reagent that responds to reducing activity.)
The subject of the next data set is MDA-MB-231 cells. The data set can be described thus: confocal fluorescence imaging of cellular uptake and cytotoxicity. Format: cell-based, human. The conditions noted are these: 30 μM; 6 hours.
The subject of data set [2] is MDA-MB-231 human triple negative breast cancer subcutaneous tumor xenografts. Briefly: subcutaneous xenograft tumor shrinkage study. Format: in vivo, Athymic Nude-Foxn1nu strain mice. The conditions noted are these: for anti-tumor effect over early, mid and late stages: 14-day, 21-day and 28-day groups, 10 mg/kg IV. How it is done:
In this section, cell culture, tumor induction and drug injection studies were carried out. First, 20 μl of 1×10^6 MDA-MB-231 human triple negative cancer cells were cultured in T75 tissue culture flasks (CELLTREAT, Pepperell, Mass., USA). This was carried out at 37° C. until 70% confluence was reached. The cells were grown under normal atmospheric pressure levels in a “L15^+ medium” that is typically made up of: L-15 medium (ATCC, Manassas, Va., USA), supplemented with 100 I.U./ml penicillin/100 µg/ml streptomycin and 10% FBS (ATCC, Manassas, Va., USA).
Forty 4-week old Athymic Nude-Foxn1nu strain mice with individual weights of ˜17 g each was purchase from Envigo (Somerset, N.J., USA). These animals were approved for use in the current work by the University of Massachusetts Medical School Institutional Animal Care and Use Committee (UMMS IACUC) with docket #A2630-17. All of the animals were maintained and used according to the approved UMMS IACUC procedure and guideline.
Subcutaneous tumor xenografts were induced by the injection of 5.0×10^6 of MDA-MB-231 human triple negative breast cancer cells (suspended in sterile saline) into the interscapular region (for a better angiogenic response). Tumor formation was carefully assessed by palpation. Tumor growth was then monitored daily with the digital calipers. The tumor volume was calculated using the following modified ellipsoidal formula: […]
where length was the longest axis of the tumor and width is the measurement at a right angle to the length.
The mice were randomly chosen in groups of three (for each drugs injection) into their respective treatment groups. These include groups of mice with early stage (14 days after tumor induction), mid stage (21 days after tumor induction) and late stage (28 days after tumor induction) tumors. The weights of the mice and their tumor sizes were monitored and measured (using digital calipers) on a daily basis. These precise volumes and measured weights of the mice were used to guide the administration of the drugs. They were also used to monitor toxicity and side effects associated with the drugs. For each of the study groups, 3 mice each were randomly assigned to injection of 10 mg/kg of the specific drug configuration (PGS, [D-Lys6]LHRH-conjugated PGS, and DMSO).
(§1) Different groups of mice were injected intravenously with each drug through their tail veins. This was done after tumor growth for 14, 21 and 28 days. The mice were injected with 10 mg/kg per week, during the two-week periods in which the effects of drugs were investigated. Following each drug administration, the tumor sizes were monitored with calipers on a daily basis (every 24 hours). In this way, the possible tumor shrinkage, growth or elimination, were monitored on a daily basis. Furthermore, the health status of the mice was monitored on a daily basis. This was done by monitoring the mice for signs of weight loss or altered motor ability in their cages. At the end of study, the mice were euthanized, following the approved IACUC guidelines and procedures. Thereafter, tumor tissues were excised from all of the mice, including tissues from their major organs (kidneys, spleen, liver and lungs).

The nature of data set [3]: histopathological and toxicity studies (body weight, clinical signs, H&E of organs). It counts as in vivo, athymic nude mice. Conditions: 10 mg/kg weekly for two weeks, IV; for toxicity / side effects (clinical signs, mortality, body weight): tumor-bearing mice. The method, then:
as §1
(§2) Following the in vivo tumor induction and growth experiments, tissues were extracted from the kidneys, spleen, lungs, liver and tumor regions. These were immediately fixed in 4% paraformaldehyde, dehydrated in a graded series of alcohol, and embedded in paraffin. Double doses of 10 mg/kg of PGS and PGS-[D-Lys6]LHRH were then administered (on a weekly basis for two weeks) to female athymic nude mice that were subcutaneously-induced with TNBC. In this way, qualitative toxicity was studied by considering differences in mortality, changes in body weight, clinical signs, gross observations and the histopathology of the lungs, kidneys and the liver at different stages of tumor development. This was done for the different drugs and cancer treatment durations. Daily observations and weight measurements were also used to check for possible animal reactions to the drugs, physiological changes, weight loss/gain, and the general well-being of the mice.
(§3) Hematoxylin and eosin (H and E) staining was also carried out. This was used for the identification of tumor necrosis and the examination of histologic changes that occurred in vital organs, following the administration of the drugs. Briefly, formalin-fixed, paraffin-embedded tissue/organs (tumor, kidneys, liver and lungs) samples (5 μm) were injected with PGS, [D-Lys6]LHRH-conjugated PGS, and DMSO. These were hydrated by passing them through decreasing concentrations (100, 90 &70%) of alcohol baths and water.
The hydrated tissue sections were then stained in hematoxylin solution for 5 mins. This was followed by rinsing with tap water for 3 minutes and differentiation in 1% acid alcohol for 5 minutes. Tap water was then used to rinse (three times) before dipping the sections in ammonia water for 2 minutes. This was followed by staining with eosin for 10 mins. The treated sliced samples were dehydrated in solution with increasing concentrations of alcohols followed by xylene. Finally, a few drops of Permount Mounting Medium were used to mount the resulting samples. The stained slides were then imaged with a 20× objective lens using a TS100F Nikon microscope (Nikon Instruments Inc., Melville, N.Y., USA) coupled with a DS-Fi3 C camera.

Data set [4] has as its system breast cancer tumor (LHRH receptors on triple negative breast tumor tissue). The data set can be described thus: drug-tissue adhesion study with drug-coated AFM tips. Format: binding, mice. The method, then:
In an effort to understand the specificity in the targeting of triple negative breast cancer via the receptors that are over-expressed on the tumor, adhesion measurements were carried out on the control xenograft tissue samples at different stages of tumor development. Adhesion forces and interactions (between the different drug molecules and receptors on the surfaces of the tumor tissues at different stages of development) were explored in an effort to understand the interactions of the drugs with the tumor and non-tumor tissue.
Antigen retrieval was carried out on the fixed tissue. This involved exposing target antigens to receptors on a 10 μm thick microtome tissue slice. These sliced tissues were prepared for adhesion measurements in an Asylum MFP3D-Bio Atomic Force Microscope (AFM) (Asylum Research, Oxford Instrument, CA, USA). The AFM tips RESP-20 AFM tip (Bruker Santa Barbara, Calif., USA) were dip-coated with prodigiosin, or [D-Lys6]LHRH-conjugated prodigiosin using the techniques described in Obayemi et al. (J. Mech. Behav. Biomed. Mater., 68 (2017), pp. 276-286).
A simple AFM tip dip-coating technique (J. D. Obayemi et al. Materials Science and Engineering C. 66, (2016), 51-65, Hampp, E. et al. Res. 27 (22), 2891, Hutter, J. L. et al. Instrum. 64, 1868) (of the drugs) was used to coat the AFM tips at room-temperature (˜23° C.). In addition, a positive control of LHRH peptides was coated onto the AFM tips and used to determine the adhesion forces between the receptors on breast cancer tissue. All of the coated AFM tips were air-dried for about 6 h and kept in a desiccator overnight before the adhesion measurements.
The spring constants of the coated and uncoated AFM tips were measured experimentally using the thermal tune method (J. D. Obayemi, et al. Mater., 68 (2017), 276-286). This was done to obtain the actual spring constants that were used to calculate the pull-off forces from Hooke's law. The adhesion interactions were measured for the following configurations of coatings on the AFM tips and breast cancer tumor at different stages on the mice: […]

For data set [5], the system named is MDA-MB 231 induced xenograft breast tumor. Briefly: histopathological (H&E) and TEM examination of treated tumor tissue. Conditions: for histopathology of tumor tissue (necrosis): after treatment, H&E. Format: in vivo, mice. How it is done:
as §2, §3
The hydrated tissue sections were then stained in hematoxylin solution for 5 mins. This was followed by rinsing with tap water for 3 minutes and differentiation in 1% acid alcohol for 5 minutes. Tap water was then used to rinse (three times) before dipping the sections in ammonia water for 2 minutes. This was followed by staining with eosin for 10 mins. The treated sliced samples were dehydrated in solution with increasing concentrations of alcohols followed by xylene. Finally, a few drops of Permount Mounting Medium were used to mount the resulting samples. […]

[6] abbreviates: 21-day (mid stage) group, 10 mg/kg per week IV, two weeks.
Where [7] appears, read: 28-day (late stage) group, 10 mg/kg per week IV, two weeks.
The mark [8] stands for this setting: day 14 (early stage) group, two IV injections (one per week) of 10 mg/kg.
Setting [9] is: listed as [D-Lys6]LHRH-conjugated PGS.

Entries after “also recorded” stand apart in the source; their conditions may differ.

Procedure for MDA MB 231 cells: The alamar blue cell viability and cytotoxicity assay was used to study the MDA MB 231 cells lines in the log phase of growth. MDA MB 231 cells were harvested with trypsin-EDTA in the presence of Dulbecco Phosphate Buffer (DPBS). 10^4 cells/well were then seeded in 12-well plates in L15+ medium (L15 medium with cell medium supplement of FBS and penicillin/streptomycin). […] Cell viability was monitored using the alamar blue cell viability and cytotoxicity reagent (Thermo Fisher Scientific, Waltham, Mass., USA) at times of 0 h, 18 h, 24 h, 48 h and 72 h, following drug addition. At each time point, the culture medium was replaced with 1 ml of 10% alamar blue solution (in culture medium). The 12-well plates were then incubated at 37° C. for different durations. After each time point, 100 μl of the solution incubated with alamar blue solution (ABS) was transferred into triplicate wells of a black opaque 96-well plate (Thermo Fisher Scientific, Waltham, Mass., USA).
The fluorescence intensities of the cell medium supernatant incubated with ABS were measured at 544 nm excitation and 590 nm emission using a 1420 Victor3 multi-label plate reader (Perkin Elmer, Waltham, Mass., USA). The percentage of alamar blue reduction, the percentage difference in cell population between the treated and untreated cells, and the percentage of cell growth inhibition, were determined using a combination of the ABS and cell viability studies. In this way, the cytotoxicity of the respective conjugated drug molecules was obtained from equations 1 and 2 below.
where, FIsample=fluorescence intensity of the (treated or untreated) cells, FI10% AB=fluorescence intensity of 10% alamar blue reagent (negative control) and FI10% R=fluorescence intensity of 100% reduced alamar blue (positive control).
FItreated=fluorescence intensity of treated cells and FIcells=fluorescence intensity of untreated cells

For the compound `CCCCCC1=C/C(=C/c2[nH]c(-c3ccc[nH]3)cc2OC)N=C1C` [PGS, 4-methoxy-5-[(Z)-(5-methyl-4-pentyl-2H-pyrrol-2-ylidene)methyl]-1H,1′H-2,2′-bipyrrole, reference compound], the “cell viability (percentage alamar blue reduction) in siRNA-treated cells” value in data set [1] is listed as “no significant differences in cell viability”. Besides, in the data set with MDA-MB-231 cells, the “structural changes of actin filaments, vinculin and nuclei (confocal)” value is “degradation, disorganization and depolymerization of the actin filaments and vinculin structures”. The compound also yielded a resulting tumor volume in data set [2] (setting [6]) of 90.11 mm^3. This compound showed a xenograft tumor size in data set [2] (setting [7]) of 300.3 mm^3. In data set [2] (setting [8]), the final tumor sizes was approximately 29.42 mm^3 and the “tumor outcome, early stage” value is “some tumor shrinkage”. The “histological / pathological changes in liver, lung and kidneys (H&E)” value in data set [3] is reported as “no significant histological or significant pathological changes”.
With “LHRH-PGS: [D-Lys6]LHRH analog conjugated to prodigiosin at the epsilon (ε) amino side chain of the D-Lys6 moiety”, the “cell viability (percentage alamar blue reduction) in siRNA-treated cells” value in data set [1] is reported as “no significant differences in cell viability”. For the same compound, the “structural changes of actin filaments, vinculin and nuclei (confocal)” value in the data set on MDA-MB-231 cells is reported as “more evident”. The “anti-tumor effect over early, mid and late stages” value in data set [2] (listed as LHRH-prodigiosin, 10 mg/kg) is on record as “decrease, shrink or eliminate tumors”; in data set [2] (listed as [D-Lys6]LHRH-conjugated PGS, 10 mg/kg), “significant anti-tumor effects; also recorded: highest therapeutic activity”; in data set [2] (listed as [D-Lys6]LHRH-conjugated prodigiosin, 10 mg/kg), “shrunk or eliminate the induced tumor”. Further, the “decrease in xenograft volume compared to unconjugated PGS” value in data set [2] (setting [6]) is listed as 95.6%. Moreover, in data set [2] (setting [6]), the resulting tumor volume is listed as 3.93 mm^3. The “tumor outcome, mid stage” value in data set [2] (setting [6]) is “significant shrinkage”. Moreover, the “percentage reduction in xenograft tumor volume compared to unconjugated PGS” value in data set [2] (setting [7]) turned out to be 83.4%. The xenograft tumor size in data set [2] (setting [7]) turned out to be 49.9 mm^3. Further, the “tumor outcome, late stage” value was “significant tumor shrinkage” in data set [2] (28-day (late stage) group, 10 mg/kg per week IV, two weeks, 10 mg/kg) and “significant shrinkage” in data set [2] (28-day (late stage) group, 10 mg/kg per week IV, two weeks, listed as [D-Lys6]LHRH-conjugated prodigiosin, 10 mg/kg). In addition, the “tumor outcome, early stage” value is “elimination of early stage breast tumors” in data set [2] (day 14 (early stage) group, two IV injections (one per week) of 10 mg/kg, listed as LHRH-conjugated prodigiosin, 10 mg/kg); “tumor elimination” in data set [2] (day 14 (early stage) group, two IV injections (one per week) of 10 mg/kg, listed as [D-Lys6]LHRH-conjugated PGS, 10 mg/kg); “eliminated the tumors” in data set [2] (day 14 (early stage) group, two IV injections (one per week) of 10 mg/kg, listed as [D-Lys6]LHRH-conjugated prodigiosin, 10 mg/kg). Moreover, the “adhesion force relative to unconjugated PGS, early stage” value in data set [4] (early stage breast tumor) is reported as “nearly three times”. In addition, the “adhesion force relative to unconjugated PGS, late stage” value in data set [4] (late stage breast tumor) is on record as “four times”. Also, the “adhesion force relative to unconjugated PGS, mid stage” value in data set [4] (mid stage breast tumor) is on record as “three times”. In addition, the “histological / pathological changes in liver, lung and kidneys (H&E)” value in data set [3] (listed as [D-Lys6]LHRH-PGS) was “did not induce any degeneration in the primary organs”; in data set [3] (setting [9]), “no significant histological or significant pathological changes; also recorded: no evidence of liver cell hyaline degeneration and necrosis; also recorded: no pulmonary edema or hyperplasia; also recorded: glomerular volume of the kidneys was normal; also recorded: no chemotherapeutic drug-induced histological changes and tumor metastasis”. Further, the “toxicity / side effects (clinical signs, mortality, body weight)” value in data set [3] (listed as LHRH-prodigiosin) is “No clinical signs, differences in mortality, or changes in body weight”; in data set [3] (listed as [D-Lys6]LHRH-conjugated prodigiosin), “minimal; also recorded: without any evidence of toxicity”. The “structural changes of tumor cells/tissue (TEM)” value in data set [5] (21-day and 28-day treatment groups) is “greater structural changes”. The “histopathology of tumor tissue (necrosis)” value in data set [5] is “exhibited disorder and different sizes”; in data set [5] (setting [9]), “higher levels of necrosis in the tumors”. In addition, in the data set with MDA MB 231 cells, the “cytotoxicity on co-incubation of LHRH” value is reported as “decreased the cytoxicity”. In addition, the “percentage alamar blue reduction (cell viability)” value with MDA MB 231 cells (15 μM, 25 μM, 30 μM, 18, 24, 48 and 72 h post-treatment) is on record as “increasing drug concentration had a greater effect on cell growth”. The “percentage cell growth inhibition” value in the data set with MDA MB 231 cells (15 μM, 25 μM, 30 μM, 72 h) is “effective at inhibiting the growth”.
